Results taken from patent US6436631B1, “Comparative phenotype analysis for assessment of biologically active compounds such as antimicrobials” (priority 2000, dated 2002).

Legend:
[1] = tested on: Saccharomyces cerevisiae (BY4741); test: EA MicroPlate nutrient stimulation test without methionine (iodo-nitro-tetrazolium violet reduction); type: cell-based; conditions: 30° C., 2 days, visual
Protocol: In this Example, the response of a yeast to various compounds was tested. The yeast used in these experiments was Saccharomyces cerevisiae (BY4741, obtained from Dr. Mark Johnston, Washington University, St. Louis, Mo.). The genotype of this strain was indicated as being Mat a (i.e., mating type “a”), ura-, his-, leu-, and met-. In these experiments, the ability of this strain to grow in a culture medium without methionine was investigated. Methionine interferes with the ability to test this organism for its utilization of other potential sulfur sources (i.e., if methionine is added to a culture medium the organism preferentially uses it as a sulfur source). The yeast was grown for 48 hours at 30° C. on R2A agar medium (Acumedia). Cells were removed from the agar surface with a sterile cotton swab and suspended at a cell density of 65% transmittance (as read using a BiologTM turbidimeter) in an inoculating fluid containing 50 mM glucose, 0.15 mM uracil, 0.15 mM L-histidine, 0.15 mM L-leucine, 0.15 mM MgCl2, 1.0 mM CaCl2, 2.0 mM NaCl, 1.0 mM KCl, 3.0 mM NH4Cl, 1.0 mM NaH2PO4, 0.1 mM Na2SO4, 0.01% iodo-nitro-tetrazolium violet, 0.01% phytagel (gellan gum), 0.03% pluronic F-68; the pH was adjusted to 6.0. The cell suspension (100 μl/well) was then used to inoculate a BiologTM EA MicroPlateTM, which tests the ability of a cell to be stimulated by a set of 95 different nutrients. The nutrients included within the microarray were: […] One well (A-1) contains no nutrients and is used as a reference (i.e., control) well. After inoculation, the microarray was incubated at 30° C. for 2 days and visually observed.

[2] = tested on: vancomycin-intermediate S. aureus isolates (VISA); conditions: VISA isolates identified since 1996 in Europe, Asia and the U.S.; cited from earlier work
[3] = tested on: E. coli (MG1655); test: BAC combination (synergy/antagonism) testing in ES1, ES2 and ES3 MicroPlate sensitivity panels, tetrazolium violet; type: cell-based; conditions: in the presence of 10 μg/ml vancomycin; vancomycin wells at 10, 20, 40 and 80 μg/ml
Protocol: In this Example, the susceptibility of E. coli (MG1655) was tested in the presence of vancomycin (10 μg/ml) or sulfamethoxazole (235 μg/ml) in microarrays containing various additional compounds. The microarrays were present in three Biolog™ sensitivity test panels, referred to as ES1, ES2 and ES3 MicroPlates™. The organisms were added to a sterile aqueous suspension containing 0.40% NaCl, 0.03% pluronic F68, 0.01% phytagel, and 0.01% tetrazolium violet, to a cell density of 85% transmittance (as measured using a BiologTm turbidimeter). The BAC to be tested was added to the suspension just prior to inoculating the organisms (100 μl/well) into the wells of the microarrays. The wells of these ES MicroPlates™ contained a basal broth medium consisting of tryptone (2 g/L), yeast extract (1 g/L), and NaCl (1 g/L). […]

N[C@@H](CCC(=O)N[C@@H](CS)C(=O)NCC(=O)O)C(=O)O [glutathione]
stimulation of growth/respiration (pink color) in medium without methionine ([1]; glutathione well (reduced form; 100 μM)): increased pink color

Cc1ncc(CO)c(CO)c1O [pyridoxine]
stimulation of growth/respiration (pink color) in medium without methionine ([1]; pyridoxine well (0.25 μM)): increased pink color

CN[C@H](CC(C)C)C(=O)N[C@H]1C(=O)N[C@@H](CC(N)=O)C(=O)N[C@H]2C(=O)N[C@H]3C(=O)N[C@H](C(=O)N[C@H](C(=O)O)c4cc(O)cc(O)c4-c4cc3ccc4O)[C@H](O)c3ccc(c(Cl)c3)Oc3cc2cc(c3O[C@@H]2O[C@H](CO)[C@@H](O)[C@H](O)[C@H]2O[C@H]2C[C@](C)(N)[C@H](O)[C@H](C)O2)Oc2ccc(cc2Cl)[C@H]1O [vancomycin]
vancomycin minimum inhibitory concentration [MIC] [2]: 8 to 16 mg/L
change of sensitivity of E. coli strain to panel compound [3]: transient increased sensitivity
